# Patent US20110077248A1, “IMIDAZOPYRIDINE AND RELATED ANALOGS AS SIRTUIN MODULATORS” (Sirtris Pharmaceuticals, Inc., priority 2008, published 2011)
# Biological target: T1, SIRT1 (Homo sapiens, UniProt Q96EB6)
# T1 construct: His-tag (N); made in house; host or cells: E. coli BL21(DE3), T7-promoter vector
# T1 sequence (Q96EB6 1-747): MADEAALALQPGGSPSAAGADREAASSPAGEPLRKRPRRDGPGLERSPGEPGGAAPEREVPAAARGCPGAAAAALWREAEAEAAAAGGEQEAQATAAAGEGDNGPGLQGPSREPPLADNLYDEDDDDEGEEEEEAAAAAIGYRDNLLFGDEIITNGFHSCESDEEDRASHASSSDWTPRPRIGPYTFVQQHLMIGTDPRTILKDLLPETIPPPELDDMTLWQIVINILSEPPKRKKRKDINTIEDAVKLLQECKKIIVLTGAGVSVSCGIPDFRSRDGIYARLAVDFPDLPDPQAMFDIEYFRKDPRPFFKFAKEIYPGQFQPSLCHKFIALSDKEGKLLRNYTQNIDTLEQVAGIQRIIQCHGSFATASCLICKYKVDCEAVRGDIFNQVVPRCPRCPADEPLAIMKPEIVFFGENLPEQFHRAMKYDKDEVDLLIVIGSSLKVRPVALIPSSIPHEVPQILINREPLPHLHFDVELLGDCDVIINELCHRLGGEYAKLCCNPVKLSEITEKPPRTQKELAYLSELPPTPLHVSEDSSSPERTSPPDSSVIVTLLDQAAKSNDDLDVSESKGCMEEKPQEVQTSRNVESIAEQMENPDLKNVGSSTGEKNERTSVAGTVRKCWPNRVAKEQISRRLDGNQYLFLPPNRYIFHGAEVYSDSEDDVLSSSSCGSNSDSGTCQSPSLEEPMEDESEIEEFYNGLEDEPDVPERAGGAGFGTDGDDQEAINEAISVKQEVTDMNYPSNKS
# Assay: Mass spectrometry based assay for modulators of SIRT1 activity (deacetylation of p53-based acetylated peptide)
# Type: biochemical
# Conditions: for EC1.5: concentration of test compound that results in 150% activation of SIRT1, 0.5 μM peptide substrate, 120 μM βNAD+, 10 nM SIRT1, 25 min, 25° C.; for Emax: percent maximum fold activation of SIRT1
# Source text: A mass spectrometry based assay was used to identify modulators of SIRT1 activity. The mass spectrometry based assay utilizes a peptide having 20 amino acid residues as follows: Ac-EE-K(biotin)-GQSTSSHSK(Ac)NleSTEG-K(5TMRi)-EE-NH2 (SEQ ID NO: 1) wherein K(Ac) is an acetylated lysine residue and Nle is a norleucine. The peptide is labeled with the fluorophore 5TMR (excitation 540 nm/emission 580 nm) at the C-terminus. The sequence of the peptide substrate is based on p53 with several modifications. In addition, the methionine residue naturally present in the sequence was replaced with the norleucine because the methionine may be susceptible to oxidation during synthesis and purification.
# The mass spectrometry assay is conducted as follows: 0.5 μM peptide substrate and 120 μM βNAD+ is incubated with 10 nM SIRT1 for 25 minutes at 25° C. in a reaction buffer (50 mM Tris-acetate pH 8, 137 mM NaCl, 2.7 mM KCl, 1 mM MgCl2, 5 mM DTT, 0.05% BSA). Test compounds may be added to the reaction as described above. The SirT1 gene is cloned into a T7-promoter containing vector and transformed into BL21(DE3). After the 25 minute incubation with SIRT1, 10 μL of 10% formic acid is added to stop the reaction. Reactions are sealed and frozen for later mass spec analysis. Determination of the mass of the substrate peptide allows for precise determination of the degree of acetylation (i.e. starting material) as compared to deacetylated peptide (product).
# A control for inhibition of sirtuin activity is conducted by adding 1 μL of 500 mM nicotinamide as a negative control at the start of the reaction (e.g., permits determination of maximum sirtuin inhibition). A control for activation of sirtuin activity is conducted using 10 nM of sirtuin protein, with 1 μL of DMSO in place of compound, to determinine the amount of deacetylation of the substrate at a given timepoint within the linear range of the assay. This timepoint is the same as that used for test compounds and, within the linear range, the endpoint represents a change in velocity.
# For the above assay, SIRT1 protein was expressed and purified as follows. The SirT1 gene was cloned into a T7-promoter containing vector and transformed into BL21(DE3). The protein was expressed by induction with 1 mM IPTG as an N-terminal His-tag fusion protein at 18° C. overnight and harvested at 30,000×g. Cells were lysed with lysozyme in lysis buffer (50 mM Tris-HCl, 2 mM Tris[2-carboxyethyl]phosphine (TCEP), 10 μM ZnCl2, 200 mM NaCl) and further treated with sonication for 10 min for complete lysis. The protein was purified over a Ni-NTA column (Amersham) and fractions containing pure protein were pooled, concentrated and run over a sizing column (Sephadex S200 26/60 global). The peak containing soluble protein was collected and run on an Ion-exchange column (MonoQ). Gradient elution (200 mM-500 mM NaCl) yielded pure protein. This protein was concentrated and dialyzed against dialysis buffer (20 mM Tris-HCl, 2 mM TCEP) overnight. The protein was aliquoted and frozen at −80° C. until further use.
# Sirtuin modulating compounds that activated SIRT1 were identified using the assay described above and are shown below in Table 1. The EC1.5 values represent the concentration of test compounds that result in 150% activation of SIRT1. The EC1.5 values for the activating compounds are represented by A (EC1.5<1.0 uM), B (EC1.5 1-25 uM), C (EC1.5>25 uM). The percent maximum fold activation is represented by A (Fold activation >200%) or B (Fold Activation <200%). “NT” indicates the compound was not tested in a particular assay.
SMILES,EC1.5,Emax [%]
O=C(Nc1nccs1)c1cccn2cc(-c3ccc(C(F)(F)F)cc3)nc12 [Compound 150],C (EC1.5>25 uM),< 200
O=C(Nc1ccccc1)c1cccn2cc(-c3cccc(OC(F)(F)F)c3)nc12 [Compound 116],C (EC1.5>25 uM),< 200
O=C(Nc1cccn2cc(-c3ccccc3)nc12)c1cscn1 [Compound 101],B (EC1.5 1-25 uM),< 200
O=C(Nc1cnccn1)c1cccn2cc(-c3ccccc3)nc12 [Compound 109],B (EC1.5 1-25 uM),< 200
O=C(Nc1cccn2cc(-c3cccc(-c4ccccc4)c3)nc12)c1cscn1 [Compound 121],C (EC1.5>25 uM),< 200
"O=C(Nc1nccs1)c1nccn2cc(-c3cccc(C(F)(F)F)c3)nc12 [Compound 138, N-(thiazol-2-yl)-2-(3-(trifluoromethyl)phenyl)imidazo[1,2-a]pyrazine-8-carboxamide]",C (EC1.5>25 uM),< 200
Cc1ccc(-c2cn3ccnc(C(=O)Nc4nccs4)c3n2)cn1 [Compound 162],C (EC1.5>25 uM),< 200
"O=C(Nc1nccs1)c1cccn2cc(-c3cccc(OC(F)(F)F)c3)nc12 [Compound 115, N-(thiazol-2-yl)-2-(3-(trifluoromethoxy)phenyl)imidazo[1,2-a]pyridine-8-carboxamide]",B (EC1.5 1-25 uM),< 200
O=C(Nc1ccccn1)c1cccn2cc(-c3ccccc3F)nc12 [Compound 153],C (EC1.5>25 uM),< 200
O=C(Nc1cccn2cc(-c3ccccc3)nc12)c1cnccn1 [Compound 102],C (EC1.5>25 uM),< 200
O=C(Nc1ccccn1)c1cccn2cc(-c3cccc(F)c3)nc12 [Compound 155],C (EC1.5>25 uM),< 200
Cc1ccc(-c2cn3ccnc(C(=O)Nc4ccccn4)c3n2)cn1 [Compound 163],B (EC1.5 1-25 uM),< 200
O=C(Nc1cccn2cc(-c3cccc(C(F)(F)F)c3)nc12)c1ccncc1 [Compound 119],C (EC1.5>25 uM),< 200
O=C(Nc1cccn2cc(-c3cccc(OC(F)(F)F)c3)nc12)c1cscn1 [Compound 104],C (EC1.5>25 uM),< 200
O=C(Nc1cccc(CN2CCOCC2)n1)c1nccn2cc(-c3cccc(OC(F)(F)F)c3)nc12 [Compound 158],A (EC1.5<1.0 uM),> 200
O=C(Nc1cccn2cc(-c3cccc(-c4ccccc4)c3)nc12)c1ncccn1 [Compound 125],B (EC1.5 1-25 uM),< 200

# More lines, now with the values ahead:
EC1.5,Emax [%],SMILES
B (EC1.5 1-25 uM),> 200,O=C(Nc1nccs1)c1cccn2cc(-c3ccc(CN4CCCC4)cc3)nc12 [Compound 252]
B (EC1.5 1-25 uM),> 200,O=C(Nc1cccnn1)c1nccn2cc(-c3ccc(F)cc3C(F)(F)F)nc12 [Compound 191]
B (EC1.5 1-25 uM),> 200,O=C(Nc1ccccn1)c1cccn2nc(-c3ccccc3OC(F)(F)F)nc12 [Compound 228]
B (EC1.5 1-25 uM),< 200,O=C(Nc1ccccn1)c1cccn2nc(-c3cc(Cl)ccc3C(F)(F)F)nc12 [Compound 224]
B (EC1.5 1-25 uM),> 200,O=C(Nc1ccccn1)c1cccn2cc(-c3cccc(CN4CCCC4)c3)nc12 [Compound 257]
A (EC1.5<1.0 uM),> 200,O=C(Nc1nccs1)c1nccn2cc(-c3ccccc3C(F)(F)F)nc12 [Compound 171]
B (EC1.5 1-25 uM),> 200,Cc1cc(-c2nc3c(C(=O)Nc4cccc(CN5CCOCC5)n4)cccn3n2)ccn1 [Compound 217]
B (EC1.5 1-25 uM),> 200,O=C(Nc1cccnn1)c1nccn2cc(-c3ccccc3OC(F)(F)F)nc12 [Compound 243]
B (EC1.5 1-25 uM),> 200,O=C(Nc1ccncn1)c1nccn2cc(-c3ccccc3OC(F)(F)F)nc12 [Compound 244]
C (EC1.5>25 uM),< 200,O=C(Nc1ccccn1)c1cccn2cc(-c3ccc(N4CCOCC4)cc3)nc12 [Compound 184]
C (EC1.5>25 uM),< 200,Cc1ncccc1-c1nc2c(C(=O)Nc3ccccn3)cccn2n1 [Compound 240]
A (EC1.5<1.0 uM),> 200,Cc1cnc(NC(=O)c2nccn3cc(-c4ccc(F)cc4C(F)(F)F)nc23)s1 [Compound 190]
B (EC1.5 1-25 uM),< 200,"O=C(Nc1nccs1)c1cccn2nc(-c3ccc(OCCN4CCOCC4)cc3C(F)F)nc12 [Compound 265, 2-(2-(difluoromethyl)-4-(2-morpholinoethoxy)phenyl)-N-(thiazol-2-yl)-[1,2,4]triazolo[1,5-a]pyridine-8-carboxamide]"
C (EC1.5>25 uM),< 200,O=C(Nc1ccccn1)c1cccn2cc(-c3ccc(N4CCCC4)cc3)nc12 [Compound 167]
B (EC1.5 1-25 uM),> 200,O=C(Nc1nccs1)c1cccn2nc(-c3ccccc3OC(F)(F)F)nc12 [Compound 227]
A (EC1.5<1.0 uM),> 200,O=C(Nc1nc(CN2CCOCC2)cs1)c1cccn2cc(-c3cc(F)cc(F)c3)nc12 [Compound 192]
A (EC1.5<1.0 uM),> 200,O=C(Nc1ccc(CCN2CCOCC2)cc1)c1cccn2cc(-c3ccc(F)cc3C(F)(F)F)nc12 [Compound 170]
A (EC1.5<1.0 uM),> 200,O=C(Nc1nc(CN2CCOCC2)cs1)c1cccn2cc(-c3ccc(F)c(Cl)c3)nc12 [Compound 235]
B (EC1.5 1-25 uM),> 200,O=C(Nc1ccccn1)c1cccn2nc(-c3ccc(OCCN4CCOCC4)cc3C(F)F)nc12 [Compound 248]
B (EC1.5 1-25 uM),> 200,O=C(Nc1ccccn1)c1cccn2cc(-c3ccc(CN4CCCC4)cc3)nc12 [Compound 253]
A (EC1.5<1.0 uM),> 200,"O=C(Nc1nccs1)c1cccn2nc(-c3cc(N4CCOCC4)ccc3C(F)(F)F)nc12 [Compound 221, 2-(5-morpholino-2-(trifluoromethyl)phenyl)-N-(thiazol-2-yl)-[1,2,4]triazolo[1,5-a]pyridine-8-carboxamide]"
